# How the values were obtained:
# [1] = log P by HPLC on reversed-phase columns (C 18), EEC Directive 79/831 Annex V.A8; assay type: physicochemical; conditions: for chromatographic logP: reversed-phase C18 HPLC column, pH 2.3, [a] HPLC, read-out: log p
# Septoria tritici = Septoria tritici test (wheat)/protective; assay type: in vivo; conditions: Zymoseptoria tritici, 504 h, 500 ppm active substance, protective, evaluation 21 days after inoculation, read-out: degree of effectiveness
# Procedure: • Solvent: 50 parts by weight of N,N-dimethylacetamide • Emulsifier: 1 part by weight of alkylaryl polyglycol ether (polyoxyethylene (16) tristearylphenyl ether) To prepare a suitable active substance composition, 1 part by weight of active substance is mixed with the given amounts of solvent and emulsifier and the concentrate is diluted to the desired concentration using water. For the testing of protective effectiveness, young plants are sprayed with the active substance composition at the application rate given. After the spray coating has dried on, the plants are sprayed with a suspension of spores of Septoria tritici. The plants remain in an incubation chamber at 20° C. and 100% relative humidity for 48 hours. The plants are afterwards placed under a transparent hood at 15° C. and 100% relative humidity for a further 60 hours. The plants are placed in a greenhouse at a temperature of approximately 15° C. and a relative humidity of 80%. Evaluation is carried out 21 days after the inoculation. In this connection, 0% means a degree of effectiveness corresponding to that of the control, while a degree of effectiveness of 100% means that no infestation is observed.
# Sphaerotheca fuliginea = test: Sphaerotheca test (cucumber)/protective; assay type: in vivo; conditions: Podosphaera fuliginea, 168 h, 500 ppm active substance, protective, evaluation 7 days after inoculation, read-out: degree of effectiveness
# Procedure: • Solvents: 49 parts by weight of N,N-dimethylformamide • Emulsifier: 1 part by weight of alkylaryl polyglycol ether (polyoxyethylene (16) tristearylphenyl ether) To prepare a suitable active substance composition, 1 part by weight of active substance is mixed with the given amounts of solvents and emulsifier and the concentrate is diluted to the desired concentration using water. For the testing of protective effectiveness, young cucumber plants are sprayed with the active substance composition in the application rate given. One day after the treatment, the plants are inoculated with a suspension of spores of Sphaerotheca fuliginea. Subsequently, the plants are placed in a greenhouse at 70% relative humidity and at a temperature of 23° C. Evaluation is carried out 7 days after the inoculation. In this connection, 0% means a degree of effectiveness corresponding to that of the control, while a degree of effectiveness of 100% means that no infestation is observed.
# Puccinia triticina = Puccinia triticina test (wheat)/protective; assay type: in vivo; conditions: 192 h, 500 ppm active substance, protective, evaluation 8 days after inoculation, read-out: degree of effectiveness
# Procedure: • Solvent: 50 parts by weight of N,N-dimethylacetamide • Emulsifier: 1 part by weight of alkylaryl polyglycol ether (polyoxyethylene (16) tristearylphenyl ether) To prepare a suitable active substance composition, 1 part by weight of active substance is mixed with the given amounts of solvent and emulsifier and the concentrate is diluted to the desired concentration using water. For the testing of protective effectiveness, young plants are sprayed with the active substance composition in the application rate given. After the spray coating has been dried on, the plants are sprayed with spores with a suspension of spores of Puccinia triticina. The plants remain in an incubation chamber at 20° C. and 100% relative humidity for 48 hours. The plants are placed in a greenhouse at a temperature of approximately 20° C. and a relative humidity of approximately 80%. Evaluation is carried out 8 days after the inoculation. In this connection, 0% means a degree of effectiveness corresponding to that of the control, while a degree of effectiveness of 100% means that no infestation is observed.
# Uromyces appendiculatus = test: Uromyces test (beans)/protective; assay type: in vivo; conditions: 240 h, 100 ppm active substance, protective, evaluation 10 days after inoculation, read-out: degree of effectiveness
# Procedure: • Solvents: 24.5 parts by weight of acetone • 24.5 parts by weight of dimethylacetamide • Emulsifier: 1 part by weight of alkylaryl polyglycol ether (polyoxyethylene (16) tristearylphenyl ether)
# To prepare a suitable active substance composition, 1 part by weight of active substance is mixed with the given amounts of solvents and emulsifier and the concentrate is diluted to the desired concentration using water.
# For the testing of protective effectiveness, young plants are sprayed with the active substance composition in the application rate given. After the spray coating has been dried on, the plants are inoculated with an aqueous suspension of the spores of the bean rust pathogen Uromyces appendiculatus and then remain in an incubation chamber at approximately 20° C. and 100% relative humidity for 1 day.
# The plants are then placed in a greenhouse at approximately 21° C. and a relative humidity of approximately 90%.
# Evaluation is carried out 10 days after the inoculation. In this connection, 0% means a degree of effectiveness corresponding to that of the control, while a degree of effectiveness of 100% means that no infestation is observed.
# [2] = acid region pH 2.3, 0.1% aqueous phosphoric acid and acetonitrile
# [3] = [b] LC-MS, acid region pH 2.7, 0.1% aqueous formic acid and acetonitrile
SMILES,"chromatographic logP [1, 2]",pest or weed control at 500 ppm (Sphaerotheca fuliginea),pest or weed control at 500 ppm (Puccinia triticina),"log p [1, 3]",also measured
"Cc1cc(Oc2nc(Cc3ccc(Cl)cc3)ns2)c(Cl)cc1N=CN1CCCCC1 [Example 4, 5-chloro-4-{[3-(4-chlorobenzyl)-1,2,4-thiadiazol-5-yl]oxy}-2-methyl-N-(piperidin-1-ylmethylidene)aniline]",2.53,≥ 70%,≥ 70%,,pest or weed control at 500 ppm (Septoria tritici): ≥ 70%; pest or weed control at 100 ppm (Uromyces appendiculatus): ≥ 70%
"Cc1cc(Oc2nc(Cc3ccc(Cl)cc3Cl)ns2)c(C)cc1N=CN(C)C(C)C [Example 12, N′-(4-{[3-(2,4-dichlorobenzyl)-1,2,4-thiadiazol-5-yl]oxy}-2,5-dimethylphenyl)-N-methyl-N-(propan-2-yl)imidoformamide]",2.24,≥ 70%,≥ 70%,,pest or weed control at 500 ppm (Septoria tritici): ≥ 70%; pest or weed control at 100 ppm (Uromyces appendiculatus): ≥ 70%
"CCN(C)C=Nc1cc(C)c(Oc2nc(Cc3cc(Br)ccc3C)ns2)cc1C [Example 14, N′-(4-{[3-(5-bromo-2-methylbenzyl)-1,2,4-thiadiazol-5-yl]oxy}-2,5-dimethylphenyl)-N-ethyl-N-methylimidoformamide]",2.28,≥ 70%,≥ 70%,,pest or weed control at 500 ppm (Septoria tritici): ≥ 70%; pest or weed control at 100 ppm (Uromyces appendiculatus): ≥ 70%
"CCN(C)C=Nc1cc(C)c(Oc2nc(Cc3cccc(OC)c3)ns2)cc1C [Example 16, N-ethyl-N′-(4-{[3-(3-methoxybenzyl)-1,2,4-thiadiazol-5-yl]oxy}-2,5-dimethylphenyl)-N-methylimidoformamide]",1.7,≥ 70%,≥ 70%,,pest or weed control at 500 ppm (Septoria tritici): ≥ 70%
"Cc1cc(Oc2nc(C(C)c3ccc(Cl)cc3)ns2)c(C)cc1N=CN1CCCCC1 (stereo not shown) [Example 18, 4-({3-[1-(4-chlorophenyl)ethyl]-1,2,4-thiadiazol-5-yl}oxy)-2,5-dimethyl-N-(piperidin-1-ylmethylidene)aniline]",2.41,≥ 70%,≥ 70%,,pest or weed control at 100 ppm (Uromyces appendiculatus): ≥ 70%
"Cc1cc(Oc2nc(C(C)(C)c3ccc(Cl)cc3)ns2)c(Cl)cc1N=CN(C)C(C)C [Example 30, N′-[5-chloro-4-({3-[2-(4-chlorophenyl)propan-2-yl]-1,2,4-thiadiazol-5-yl}oxy)-2-methylphenyl]-N-methyl-N-(propan-2-yl)imidoformamide]",2.86,≥ 70%,≥ 70%,,
"Cc1cc(Oc2nc(Cc3ccc(Br)cc3)ns2)c(C)cc1N=CN1CCCCC1 [Example 33, 4-{[3-(4-bromobenzyl)-1,2,4-thiadiazol-5-yl]oxy}-2,5-dimethyl-N-(piperidin-1-ylmethylidene)aniline]",2.17,≥ 70%,≥ 70%,,pest or weed control at 500 ppm (Septoria tritici): ≥ 70%
"Cc1cc(Oc2nc(Cc3cccc(Cl)c3)ns2)c(C)cc1N=CN1CCCCC1 [Example 34, 4-{[3-(3-chlorobenzyl)-1,2,4-thiadiazol-5-yl]oxy}-2,5-dimethyl-N-(piperidin-1-ylmethylidene)aniline]",2.13,≥ 70%,≥ 70%,,pest or weed control at 500 ppm (Septoria tritici): ≥ 70%; pest or weed control at 100 ppm (Uromyces appendiculatus): ≥ 70%
"Cc1cc(Oc2nc(C3(c4ccc(Cl)cc4)CC3)ns2)c(Cl)cc1N=CN(C)C(C)C [Example 41, N′-[5-chloro-4-({3-[1-(4-chlorophenyl)cyclopropyl]-1,2,4-thiadiazol-5-yl}oxy)-2-methylphenyl]-N-methyl-N-(propan-2-yl)imidoformamide]",2.71,≥ 70%,≥ 70%,,pest or weed control at 500 ppm (Septoria tritici): ≥ 70%
"Cc1cc(Oc2nc(Cc3ccc(Cl)c(Cl)c3)ns2)c(C)cc1N=CN1CCCCC1 [Example 48, 4-{[3-(3,4-dichlorobenzyl)-1,2,4-thiadiazol-5-yl]oxy}-2,5-dimethyl-N-(piperidin-1-ylmethylidene)aniline]",,≥ 70%,,,pest or weed control at 100 ppm (Uromyces appendiculatus): ≥ 70%
"COc1ccccc1Cc1nsc(Oc2cc(C)c(N=CN3CCCCC3)cc2C)n1 [Example 50, 4-{[3-(2-methoxybenzyl)-1,2,4-thiadiazol-5-yl]oxy}-2,5-dimethyl-N-(piperidin-1-ylmethylidene)aniline]",2.05,≥ 70%,,,pest or weed control at 500 ppm (Septoria tritici): ≥ 70%; pest or weed control at 100 ppm (Uromyces appendiculatus): ≥ 70%
Cc1cc(Oc2nc(Cc3ccc(SC(F)(F)F)cc3)ns2)c(C)cc1N=CN(C)CC(F)F [Example 125],,,,2.68^[b],
Cc1cc(Oc2nc(Cc3ccc(SC(F)(F)F)cc3)ns2)c(C)cc1N=CN(C)C1CC1 [Example 126],,,,1.83^[b],
Cc1cc(Oc2nc(Cc3ccc(F)cc3)ns2)c(C)cc1N=CN(C)C1CC1 [Example 127],,,,1.83^[b],
CCOCC(C1CC1)N(C)C=Nc1cc(C)c(Oc2nc(Cc3ccc(SC(F)(F)F)cc3)ns2)cc1C (stereo not shown) [Example 128],,,,2.92^[b],
Cc1cc(Oc2nc(Cc3ccc(C(F)(F)F)cc3)ns2)c(C)cc1N=CN(C)CC(F)F [Example 129],,,,2.38^[b],
Cc1cc(Oc2nc(Cc3ccc(C(F)(F)F)cc3)ns2)c(C)cc1N=CN(C)C1CC1 [Example 130],,,,2.28^[b],
Cc1cc(Oc2nc(Cc3ccc(F)cc3)ns2)c(C)cc1N=CN(C)CC(F)F [Example 131],,,,1.99^[b],
CCOCC(C1CC1)N(C)C=Nc1cc(C)c(Oc2nc(Cc3ccc(F)cc3)ns2)cc1C (stereo not shown) [Example 132],,,,2.26^[b],
CCOCC(C1CC1)N(C)C=Nc1cc(C)c(Oc2nc(Cc3ccc(C(F)(F)F)cc3)ns2)cc1C (stereo not shown) [Example 133],,,,2.43^[b],
CCOCC(C1CC1)N(C)C=Nc1cc(C)c(Oc2nc(Cc3ccc(OC)cc3)ns2)cc1C (stereo not shown) [Example 134],,,,2.36^[b],
COc1ccc(Cc2nsc(Oc3cc(C)c(N=CN(C)C4CC4)cc3C)n2)cc1 [Example 135],,,,1.92^[b],
COc1ccc(Cc2nsc(Oc3cc(C)c(N=CN(C)CC(F)F)cc3C)n2)cc1 [Example 136],,,,1.87^[b],
Cc1ccc(Cc2nsc(Oc3cc(C)c(N=CN(C)CC(F)F)cc3C)n2)cc1 [Example 137],,,,2.25^[b],
Cc1ccc(Cc2nsc(Oc3cc(C)c(N=CN(C)C4CC4)cc3C)n2)cc1 [Example 138],,,,2.19^[b],
CCOCC(NC=Nc1cc(C)c(Oc2nc(Cc3ccc(Cl)cc3)ns2)cc1C)C1CC1 (stereo not shown) [Example 139],,,,,"log p ([1]; [a] HPLC, acid region pH 2.3, 0.1% aqueous phosphoric acid and acetonitrile): 2.7^[a]"
CCOCC(C1CC1)N(C)C=Nc1cc(C)c(Oc2nc(Cc3ccc(C)cc3)ns2)cc1C (stereo not shown) [Example 140],,,,2.4^[b],
Cc1cc(Oc2nc(Cc3ccc(OC(F)(F)F)cc3)ns2)c(C)cc1N=CN(C)C1CC1 [Example 141],,,,2.2^[b],
Cc1cc(Oc2nc(Cc3ccc(OC(F)(F)F)cc3)ns2)c(C)cc1N=CN(C)CC(F)F [Example 142],,,,2.46^[b],
CCOCC(C1CC1)N(C)C=Nc1cc(C)c(Oc2nc(Cc3ccc(OC(F)(F)F)cc3)ns2)cc1C (stereo not shown) [Example 143],,,,2.75^[b],

# Source: US8383139B2 (Bayer CropScience AG, priority 2008, dated 2013)
